Results from patent publication US8993000B2, “Method for inducing differentiation of dental pulp cells into odontoblasts” (National University Corporation Okayama University, priority 2009, dated 2015).

Tested on: MEDP cells as a pulp-derived cell line
Test: Dspp expression by PCR in cultured MEDP pulp-derived cells (induction of differentiation into odontoblasts)
Format: cell-based
Conditions: for expression of Dspp (relative ratio of DSPP to GADPH amplification product): fibronectin-coated vessel; for expression of Dspp in a pulp-derived cell line: same technique as Example 1, addition concentration to be considered
Experimental: In this example, MEDP cells as a pulp-derived cell line were cultured in a system including NaClO3, and the expression of Dspp in the cultured cells was confirmed. The expression of Dspp was confirmed by PCR.
The MEDP cells were cultured using a DMEM medium containing 10% v/v fetal bovine serum (FBS). The cells were suspended in the medium so that the number of the cells was 3.7×10^5 cells/ml, and 5 ml of the cell suspension were added to a culture vessel having a diameter of 6 cm and cultured. The culture was carried out using a culture vessel coated with fibronectin (FN) at 37±0.5° C. On day 1 of the culture, […] was added so that the final concentration was 50 mM or 100 mM, and the cells were cultured for an additional 7 days.
After mRNA had been extracted from the cultured cells using an RNeasy Mini Kit™ (manufactured by QIAGEN), reverse transcription was carried out using a PrimeScript™ Reverse Transcriptase (manufactured by TAKARA) to prepare cDNA, which was used as a sample for PCR. The extraction of mRNA and the preparation of cDNA were carried out in accordance with the manufacturer's instructions. Primers formed of base sequences set forth in SEQ ID NOS: 1 and 2 of the sequence listing were used as primers for amplification of DSPP, and primers formed of base sequences set forth in SEQ ID NOS: 3 and 4 of the sequence listing were used as primers for amplification of GADPH as a control gene. The PCR was carried out using a LightCycler™ (manufactured by Roche). The expression amount of DSPP was confirmed with a relative ratio between an amplification product of DSPP and an amplification product of GADPH.
A treatment for inducing differentiation was carried out by the same technique as that of Example 1 except that LiCl was used in place of NaClO3 and LiCl was added so that the final concentration was 5 mM or 50 mM on day 1 of the culture. Then, the expression of Dspp was confirmed.
A treatment for inducing differentiation was carried out by the same technique as that of Example 1 except that NaClO4 was used in place of NaClO3. Then, the expression of Dspp was confirmed.
A treatment for inducing differentiation is carried out by the same technique as that of Example 1 except that Norrin (R&D Systems, Inc.: catalog No.: 3014-NR) is used in place of NaClO3. Then, the expression of Dspp is confirmed. The addition concentration of Norrin is to be considered.
A treatment for inducing differentiation is carried out by the same technique as that of Example 1 except that R-Spondin2 (R&D Systems, Inc.: catalog No.: 3266-RS/CF) is used in place of NaClO3. Then, the expression of Dspp is confirmed. The addition concentration of R-Spondin2 is to be considered.

[1] = 50 mM or 100 mM added on day 1, cultured additional 7 days

In the case of `[Cl-].[Li+]` [LiCl, lithium chloride], the “expression of Dspp (relative ratio of DSPP to GADPH amplification product)” value (5 mM or 50 mM added on day 1, cultured additional 7 days) is reported as “significantly enhanced”.

In the case of `[Na+].[O-][Cl+2]([O-])[O-]` [NaClO3, sodium chlorate], the “expression of Dspp (relative ratio of DSPP to GADPH amplification product)” value [1] is reported as “significantly enhanced”.

With `[O-][Cl+3]([O-])([O-])O` [sodium perchlorate] the “expression of Dspp (relative ratio of DSPP to GADPH amplification product)” value [1] was “significantly enhanced”.

B1: Norrin: protein capable of directly activating a Wnt signaling pathway (R&D Systems, catalog No. 3014-NR) (protein, UniProt Q00604 25-133, looked up)
Norrin: KTDSSFIMDSDPRRCMRHHYVDSISHPLYKCSSKMVLLARCEGHCSQASRSEPLVSFSTVLKQPFRSSCHCCRPQTSKLKALRLRCSGGMRLTATYRYILSCHCEECNS
In the case of B1, the “expression of Dspp in a pulp-derived cell line” value is reported as “significantly enhances”.

B2: R-Spondin2: protein capable of directly activating a Wnt signaling pathway (R&D Systems, catalog No. 3266-RS/CF) (protein, UniProt Q6UXX9 22-243, looked up)
R-spondin-2: QGNRWRRSKRASYVSNPICKGCLSCSKDNGCSRCQQKLFFFLRREGMRQYGECLHSCPSGYYGHRAPDMNRCARCRIENCDSCFSKDFCTKCKVGFYLHRGRCFDECPDGFAPLEETMECVEGCEVGHWSEWGTCSRNNRTCGFKWGLETRTRQIVKKPVKDTILCPTIAESRRCKMTMRHCPGGKRTPKAKEKRNKKKKRKLIERAQEQHSVFLATDRANQ
For B2, the “expression of Dspp in a pulp-derived cell line” value was “significantly enhances”.
